Laboratory results taken from the supplement of paper PMC10307832.

Columns and labels:
Assay in all cases: relative viability (nuclei count vs DMSO), 5 days (fraction); higher = more cells survive
Carboplatin = compound: C1CC(C1)(C(=O)O)C(=O)O.[NH2-].[NH2-].[Pt+2] [Carboplatin]
In short: (§1)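 Lung cancer cell lines in 1536-well plates were kept overnight at 37 °C, then pinned with five library-drug doses (not always all listed) spaced by √10 on vehicle-anchored plates. After 5 days without medium change, cells were fixed, permeabilised and Hoechst-stained in one step, imaged at 4×, and nuclei were counted with MetaXpress. Viability is treated-well nuclei divided by vehicle-well nuclei, taken as the median over plates. Plates passed only with control CV below 25% and at least one doubling.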

GSK126 = compound: CC[C@H](C)N1C=C(C2=C(C=C(C=C21)C3=CN=C(C=C3)N4CCNCC4)C(=O)NCC5=C(C=C(NC5=O)C)C)C [GSK126]
In short: as §1

MLN4924 = compound: NS(=O)(=O)OC[C@@H]1C[C@@H](n2ccc3c(N[C@H]4CCc5ccccc54)ncnc32)C[C@@H]1O [MLN4924]
In short: as §1

GSK126 + Crizotinib = compound: CC[C@H](C)N1C=C(C2=C(C=C(C=C21)C3=CN=C(C=C3)N4CCNCC4)C(=O)NCC5=C(C=C(NC5=O)C)C)C [GSK126] + C[C@@H](Oc1cc(-c2cnn(C3CCNCC3)c2)cnc1N)c1c(Cl)ccc(F)c1Cl [Crizotinib] (partner 1 µM)
In short: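 Lung cancer cell lines, seeded in 1536-well plates, were treated the following day by pin tool with a single drug or with five library-drug doses (not always all listed) in √10 steps on top of a fixed anchor-drug dose. Cells were fixed and nuclei stained in one step after 5 days, and nuclei were counted. Relative viability is the nuclei count for treated wells divided by that for vehicle wells, reported as medians of duplicate plates.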

| Cell Line | relative viability (Carboplatin; 0.08 µM) | relative viability (Carboplatin; 0.253 µM) | relative viability (Carboplatin; 0.8 µM) | relative viability (Carboplatin; 2.53 µM) | relative viability (Carboplatin; 8 µM) | relative viability (GSK126; 0.08 µM) | relative viability (GSK126; 0.253 µM) | relative viability (GSK126; 0.8 µM) | relative viability (GSK126; 2.53 µM) | relative viability (GSK126; 8 µM) | relative viability (MLN4924; 0.04 µM) | relative viability (MLN4924; 0.1265 µM) | relative viability (MLN4924; 0.4 µM) | relative viability (MLN4924; 1.265 µM) | relative viability (MLN4924; 4 µM) | relative viability (GSK126 + Crizotinib; first compound 0.08 µM) | relative viability (GSK126 + Crizotinib; first compound 0.253 µM) | relative viability (GSK126 + Crizotinib; first compound 0.8 µM) | relative viability (GSK126 + Crizotinib; first compound 2.53 µM) | relative viability (GSK126 + Crizotinib; first compound 8 µM) |
| --- | --- | --- | --- | --- | --- | --- | --- | --- | --- | --- | --- | --- | --- | --- | --- | --- | --- | --- | --- | --- |
| LOU-NH91 | 1.16 | 0.938 | 0.96 | 0.969 | 0.936 | 0.966 | 0.978 | 0.95 | 1.06 | 0.985 | 0.997 | 1.13 | 0.929 | 0.543 | 0.563 | 0.759 | 0.71 | 0.737 | 0.773 | 0.727 |
| LU99A | 1.15 | 1.08 | 1.03 | 0.901 | 0.702 | 1.04 | 0.985 | 0.912 | 1.02 | 0.904 | 0.918 | 0.601 | 0.405 | 0.178 | 0.195 | 0.649 | 0.545 | 0.537 | 0.543 | 0.525 |
| LXF-289 | 1.03 | 1.05 | 0.967 | 0.987 | 0.973 | 1.03 | 1.05 | 1.02 | 1.01 | 1.01 | 0.887 | 0.822 | 0.556 | 0.208 | 0.146 | 0.821 | 0.786 | 0.799 | 0.739 | 0.8 |
| NCI-H23 | 1.13 | 1.01 | 0.991 | 1.02 | 0.792 | 1.03 | 0.949 | 1.02 | 1.18 | 1.21 | 0.815 | 0.721 | 0.462 | 0.204 | 0.206 | 0.662 | 0.486 | 0.485 | 0.523 | 0.653 |
| NCI-H322M | 1.1 | 0.918 | 0.984 | 0.969 | 0.931 | 0.925 | 0.959 | 0.992 | 1.09 | 0.968 | 1.26 | 1.3 | 0.684 | 0.273 | 0.35 | 0.965 | 0.887 | 0.833 | 1.03 | 0.873 |
| NCI-H358 | 1.25 | 1.07 | 1.06 | 0.891 | 0.928 | 1.07 | 0.965 | 0.914 | 1.05 | 1.01 | 1.02 | 0.904 | 0.327 | 0.201 | 0.213 | 0.733 | 0.577 | 0.667 | 0.608 | 0.395 |
| NCI-H441 | 0.957 | 1.08 | 0.925 | 1 | 0.801 | 1.23 | 0.954 | 0.986 | 1.05 | 0.995 | 0.943 | 0.822 | 0.512 | 0.148 | 0.185 | 0.936 | 0.732 | 0.642 | 0.441 | 0.86 |
| NCI-H460 | 1.02 | 0.981 | 0.994 | 0.915 | 0.412 | 1.08 | 1.06 | 0.984 | 1.01 | 1.05 | 0.976 | 0.985 | 0.914 | 0.288 | 0.105 | 1.13 | 0.929 | 0.811 | 0.9 | 0.875 |
| NCI-H520 | 1.01 | 0.915 | 0.947 | 0.962 | 0.822 | 1.21 | 0.979 | 0.932 | 1.22 | 1.03 | 0.706 | 0.563 | 0.533 | 0.24 | 0.243 | 0.885 | 0.62 | 0.644 | 0.747 | 0.642 |
| NCI-H596 | 0.993 | 0.995 | 0.938 | 0.826 | 0.752 | 0.983 | 0.9 | 0.965 | 1.01 | 0.981 | 0.973 | 1.1 | 0.554 | 0.854 | 0.739 | 1.04 | 0.98 | 0.863 | 1.06 | 0.891 |
| NCI-H647 | 1.13 | 1.02 | 0.986 | 0.944 | 0.767 | 0.879 | 0.964 | 0.896 | 1.05 | 1 | 0.881 | 0.619 | 0.221 | 0.0551 | 0.0691 | 1.17 | 1.04 | 0.96 | 1.18 | 0.986 |
| NCI-H650 | 0.988 | 0.874 | 0.959 | 0.864 | 0.668 | 0.991 | 0.962 | 0.939 | 0.914 | 1.03 | 0.618 | 0.668 | 0.268 | 0.183 | 0.194 | 0.912 | 0.741 | 0.658 | 0.755 | 0.594 |
| NCI-H661 | 0.993 | 1.01 | 0.984 | 0.938 | 0.903 | 1.03 | 0.945 | 0.986 | 1.03 | 1 | 0.894 | 0.857 | 0.686 | 0.421 | 0.426 | 0.924 | 1.04 | 0.967 | 0.787 | 0.787 |
